Experimental data as given in PubChem BioAssay AID330 (DTP/NCI, 2004).
Where “and” joins values, the source holds several entries; their conditions need not be identical. Equal entries are not always repeated. Toxic doses and inconclusive results are not listed. Rule for the calls: active = survival T/C of 150% or more; inactive = T/C below 125% in these data.

System: P388 leukemia ip, CD2F1 mice, survival T/C
Experiment: NCI In Vivo Anticancer Drug Screen. Data for tumor model P388 Leukemia (intraperitoneal) in CD2F1 (CDF1) mice
Conditions: endpoint: median survival time, higher = longer survival
Summary of the method: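 Mice carrying the transplanted tumor received test compound or vehicle. Survival was recorded in each group, and the value is the treated-group measurement divided by that of the vehicle-treated control group.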

[1] = dose: 50.0 mg/kg/injection, schedule: Q01DX005 (ip), vehicle: saline with Tween-80
[2] = dose: 100.0 mg/kg/injection, schedule: Q01DX005 (ip), vehicle: saline with Tween-80
[3] = dose: 200.0 mg/kg/injection, schedule: Q01DX005 (ip), vehicle: saline with Tween-80
[4] = dose: 50.0 mg/kg/injection, schedule: Q01DX005 (ip), vehicle: Klucel (hydroxypropylcellulose) (HPC)
[5] = dose: 100.0 mg/kg/injection, schedule: Q01DX005 (ip), vehicle: Klucel (hydroxypropylcellulose) (HPC)
[6] = dose: 200.0 mg/kg/injection, schedule: Q01DX005 (ip), vehicle: Klucel (hydroxypropylcellulose) (HPC)
[7] = dose: 60.0 mg/kg/injection, schedule: Q01DX005 (ip), vehicle: saline with Tween-80
[8] = dose: 120.0 mg/kg/injection, schedule: Q01DX005 (ip), vehicle: saline with Tween-80
[9] = dose: 240.0 mg/kg/injection, schedule: Q01DX005 (ip), vehicle: saline with Tween-80
[10] = dose: 50.0 mg/kg/injection, schedule: Q01DX001 (ip), vehicle: saline with Tween-80
[11] = dose: 100.0 mg/kg/injection, schedule: Q01DX001 (ip), vehicle: saline with Tween-80
[12] = dose: 200.0 mg/kg/injection, schedule: Q01DX001 (ip), vehicle: saline with Tween-80

Measured: T/C

O=C1NC(=O)c2c(Br)c(Br)c(Br)c(Br)c21
inactive: dose: 50.0 mg/kg/injection, schedule: Q01DX009 (ip), vehicle: Klucel (hydroxypropylcellulose) (HPC) 109 % of control | dose: 100.0 mg/kg/injection, schedule: Q01DX009 (ip), vehicle: Klucel (hydroxypropylcellulose) (HPC) 109 % of control | dose: 200.0 mg/kg/injection, schedule: Q01DX009 (ip), vehicle: Klucel (hydroxypropylcellulose) (HPC) 105 % of control | dose: 400.0 mg/kg/injection, schedule: Q01DX009 (ip), vehicle: Klucel (hydroxypropylcellulose) (HPC) 96 % of control

CC(O)c1cc2c(cc1Br)OCO2 (stereo unspecified)
inactive: dose: 100.0 mg/kg/injection, schedule: Q01DX001 (ip), vehicle: Klucel (hydroxypropylcellulose) (HPC) 105 % of control | dose: 200.0 mg/kg/injection, schedule: Q01DX001 (ip), vehicle: Klucel (hydroxypropylcellulose) (HPC) 104 % of control | dose: 400.0 mg/kg/injection, schedule: Q01DX001 (ip), vehicle: Klucel (hydroxypropylcellulose) (HPC) 104 % of control

O=C(Nc1ccc(Cc2ccc(NC(=O)C34CC5CC(CC(C5)C3)C4)cc2)cc1)C12CC3CC(CC(C3)C1)C2
inactive: [1] 88 % of control | [2] 88 % of control

S=C(S)n1nc(-c2ccccc2)c(N=Nc2ccc(Cl)cc2Cl)c1-c1ccccc1
inactive: [1] 94 % of control | [2] 89 % of control | [3] 89 % of control

CC1=C(O)C(=O)C(C)=C(O)C1=O
inactive: dose: 12.5 mg/kg/injection, schedule: Q01DX001 (ip), vehicle: Klucel (hydroxypropylcellulose) (HPC) 112 % of control | dose: 25.0 mg/kg/injection, schedule: Q01DX001 (ip), vehicle: Klucel (hydroxypropylcellulose) (HPC) 112 % of control | dose: 50.0 mg/kg/injection, schedule: Q01DX001 (ip), vehicle: Klucel (hydroxypropylcellulose) (HPC) 111 % of control

CC1Cc2ccc(OCCN(C)C)cc2C1=O (stereo unspecified)
inactive: [1] 98 % of control | [2] 99 % of control

COC(c1cccc(C(OC)(C(F)(F)F)C(F)(F)F)c1)(C(F)(F)F)C(F)(F)F
inactive: dose: 25.0 mg/kg/injection, schedule: Q01DX005 (ip), vehicle: Klucel (hydroxypropylcellulose) (HPC) 101 % of control | [4] 96 % of control | [5] 103 % of control | [6] 90 % of control

COC1CC(C)(OC(C)=O)Cc2cc3c(c(OC(C)=O)c21)C(=O)c1c(OC(C)=O)cc2c(c1C3=O)OC1OC2(C)C(OC(C)=O)C(N(C)C)C1OC(C)=O (stereo unspecified)
inactive: dose: 1.25 mg/kg/injection, schedule: Q01DX009 (ip), vehicle: other 102 % of control | dose: 2.5 mg/kg/injection, schedule: Q01DX009 (ip), vehicle: other 112 % of control and 106 % of control | dose: 5.0 mg/kg/injection, schedule: Q01DX009 (ip), vehicle: other 105 % of control and 101 % of control | dose: 10.0 mg/kg/injection, schedule: Q01DX009 (ip), vehicle: other 114 % of control and 115 % of control | dose: 20.0 mg/kg/injection, schedule: Q01DX009 (ip), vehicle: other 121 % of control

Cc1ccc(OP(=O)(Oc2ccc(C)cc2)Oc2ccc(C)cc2)cc1.Cc1ccc(OP(=O)(Oc2ccc(C)cc2)Oc2ccc(C)cc2)cc1.[Cl][Cu][Cl]
inactive: dose: 12.5 mg/kg/injection, schedule: Q04DX003 (ip), vehicle: Klucel (hydroxypropylcellulose) (HPC) 99 % of control | dose: 25.0 mg/kg/injection, schedule: Q04DX003 (ip), vehicle: Klucel (hydroxypropylcellulose) (HPC) 96 % of control | dose: 50.0 mg/kg/injection, schedule: Q04DX003 (ip), vehicle: Klucel (hydroxypropylcellulose) (HPC) 99 % of control

C[N+](C)(CCS(=O)(=O)[O-])C1CCCCC1
inactive: dose: 50.0 mg/kg/injection, schedule: Q01DX009 (ip), vehicle: saline 98 % of control | dose: 100.0 mg/kg/injection, schedule: Q01DX009 (ip), vehicle: saline 90 % of control | dose: 200.0 mg/kg/injection, schedule: Q01DX009 (ip), vehicle: saline 91 % of control

CN(C)Cc1nsc(N(C)C)n1
inactive: [4] 100 % of control | [5] 97 % of control | [6] 93 % of control

CCOC(=O)c1cc(NC(C)=O)c(C)n1C
inactive: dose: 100.0 mg/kg/injection, schedule: Q04DX003 (ip), vehicle: saline with Tween-80 107 % of control | dose: 200.0 mg/kg/injection, schedule: Q04DX003 (ip), vehicle: saline with Tween-80 116 % of control | dose: 400.0 mg/kg/injection, schedule: Q04DX003 (ip), vehicle: saline with Tween-80 112 % of control

NC(=O)C(CC(=O)O)NC(=O)OCc1ccccc1 (stereo unspecified)
inactive: dose: 4.0 mg/kg/injection, schedule: Q01DX009 (ip), vehicle: other 100 % of control | dose: 8.0 mg/kg/injection, schedule: Q01DX009 (ip), vehicle: other 114 % of control | dose: 16.0 mg/kg/injection, schedule: Q01DX009 (ip), vehicle: other 101 % of control | dose: 32.0 mg/kg/injection, schedule: Q01DX009 (ip), vehicle: other 98 % of control | dose: 50.0 mg/kg/injection, schedule: Q01DX009 (ip), vehicle: other 96 % of control | dose: 64.0 mg/kg/injection, schedule: Q01DX009 (ip), vehicle: other 91 % of control | dose: 100.0 mg/kg/injection, schedule: Q01DX009 (ip), vehicle: other 90 % of control | dose: 150.0 mg/kg/injection, schedule: Q01DX009 (ip), vehicle: other 109 % of control | dose: 200.0 mg/kg/injection, schedule: Q01DX009 (ip), vehicle: other 105 % of control | dose: 400.0 mg/kg/injection, schedule: Q01DX009 (ip), vehicle: other 113 % of control

CC(C)(C)N1C(=O)C(c2ccccc2)(c2ccccc2)C1/C=C/c1ccccc1 (stereo unspecified)
inactive: [4] 93 % of control | [5] 90 % of control

CC(=O)OCC1OC(NC(=S)NCC(=O)c2ccccc2)C(OC(C)=O)C(OC(C)=O)C1OC(C)=O (stereo unspecified)
inactive: [1] 99 % of control | [2] 99 % of control | [3] 98 % of control

C/C(=N\N(C)C)C1=C(O)C(C(C)C)NC1=O (stereo unspecified)
inactive: [7] 100 % of control | [8] 105 % of control | [9] 98 % of control

CN(C)P1P(N(C)C)P(N(C)C)P1N(C)C (stereo unspecified)
inactive: [7] 97 % of control | [8] 97 % of control | [9] 95 % of control

CC(/C=N/Nc1ccccc1)=N\N=c1/scc(-c2ccc(Br)cc2)n1-c1ccc(Cl)cc1
inactive: dose: 12.5 mg/kg/injection, schedule: Q01DX001 (ip), vehicle: saline with Tween-80 98 % of control | dose: 25.0 mg/kg/injection, schedule: Q01DX001 (ip), vehicle: saline with Tween-80 89 % of control | [10] 86 % of control

CCc1nc(N)nc(N)c1-c1ccc(Cl)c(S(=O)(=O)O)c1
inactive: [7] 103 % of control | [8] 98 % of control | [9] 98 % of control

CO[C@H](C(=O)[C@@H](O)[C@@H](C)O)[C@@H]1Cc2cc3cc(O)c(C)c(O)c3c(O)c2C(=O)[C@H]1O
inactive: dose: 8.0 mg/kg/injection, schedule: Q01DX009 (ip), vehicle: water 107 % of control | dose: 16.0 mg/kg/injection, schedule: Q01DX009 (ip), vehicle: water 114 % of control | dose: 32.0 mg/kg/injection, schedule: Q01DX009 (ip), vehicle: water 100 % of control

COC(=O)C1=C2Nc3ccccc3C23CCN2C4OC56C7CC4(CN5c4c(OC)cccc4C64CCN5CCC6OCCC6(C7)C54)C4OCCC4(C1)C23 (stereo unspecified)
inactive: dose: 100.0 mg/kg/injection, schedule: Q04DX002 (ip), vehicle: saline with Tween-80 101 % of control | dose: 200.0 mg/kg/injection, schedule: Q04DX002 (ip), vehicle: saline with Tween-80 101 % of control | dose: 400.0 mg/kg/injection, schedule: Q04DX002 (ip), vehicle: saline with Tween-80 101 % of control

S=P1(CNc2ccccc2)CN(c2ccccc2)CN(c2ccccc2)C1
inactive: [10] 100 % of control | [11] 95 % of control | [12] 100 % of control

COc1ccc(CN2CCc3cc(OC)c(O)cc3C2)cc1O
inactive: [11] 94 % of control | [12] 98 % of control
